Data published in patent US12391737B2, “Soluble NPY2 receptor agonists” (Boehringer Ingelheim International GmbH, priority 2020, dated 2025).
pKi: −log10 of the molar value. *1 amine or outer side, *2 acyl side, *3 side chain or, on linkers, in order; H or OH if unused. Where a SMILES comes first, the peptide text is derived from it. Side-chain parts run from the residue outwards. The star is where a group is joined. C18 diacid = O=C(O)CCCCCCCCCCCCCCCCC(=O)*; γGlu = O=C(O)[C@H](CCC(=O)[*:2])N[*:1]; Isovaleryl = CC(C)CC(=O)*; Ahx = NCCCCCC(=O)O

Tests used:
Solubility determination = settings: for Sol6: pH 6; for Sol7: pH 7
Summary of the method: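 Solubility is derived from the ratio of reversed-phase peak areas, filtered sample over a control dissolved at 1 mg/ml in 50% acetonitrile. Peptides are agitated for 2 hours at room temperature in 0.1 M sodium diphosphate at pH 6.4 or 7.0, aiming at 10 mg/ml.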

[1] = molecular target: T1, Human Neuropeptide Y2 Receptor (Homo sapiens, UniProt P49146); test: Radioligand binding competition assay (RLB); settings: Table 3, 125I-PYY(1-36) competition; read-out: Ki
T1 construct: purchased CHEMICON HTS066M
T1 sequence (P49146 1-381): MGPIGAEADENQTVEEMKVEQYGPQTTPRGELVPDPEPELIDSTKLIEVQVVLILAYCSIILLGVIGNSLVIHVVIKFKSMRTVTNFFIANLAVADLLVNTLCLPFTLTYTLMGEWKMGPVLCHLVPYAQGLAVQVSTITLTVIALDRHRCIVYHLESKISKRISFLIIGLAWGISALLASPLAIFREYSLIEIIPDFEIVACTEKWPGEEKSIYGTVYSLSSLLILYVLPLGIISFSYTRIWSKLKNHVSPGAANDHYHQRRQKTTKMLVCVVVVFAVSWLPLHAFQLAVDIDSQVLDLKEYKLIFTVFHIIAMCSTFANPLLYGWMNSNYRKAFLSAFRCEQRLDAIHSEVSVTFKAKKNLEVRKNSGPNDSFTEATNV
Summary of the method: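 Filtration competition binding on membranes from cells expressing the receptor, 0.5 μg protein/well, in 50 mM HEPES, 5 mM MgCl2, 1 mM CaCl2, pH 7.4, with 0.2% ovalbumin. Incubation ran 2 h at room temperature, followed by GF/C filtration and scintillation counting. IC50 came from nonlinear sigmoidal fits.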

SMILES | Sol6 (Solubility determination) | Sol7 (Solubility determination) | pKi [1]
CC(C)CC(=O)N[C@@H](C)C(=O)N1CCC[C@H]1C(=O)N[C@@H](C)C(=O)N[C@@H](CCCCNC(=O)CCCCCNC(=O)CC[C@H](NC(=O)CCCCCCCCCCCCCCCCC(=O)O)C(=O)O)C(=O)N1CCC[C@H]1C(=O)N[C@@H](CCC(=O)O)C(=O)N[C@@H](CCC(=O)O)C(=O)N[C@@H](C)C(=O)N[C@@H](C)C(=O)N[C@@H](CO)C(=O)N1CCC[C@H]1C(=O)N[C@@H](CCC(=O)O)C(=O)N[C@@H](CCC(=O)O)C(=O)N[C@@H](CC(C)C)C(=O)N[C@@H](CCC(N)=O)C(=O)N[C@@H](CCCNC(=N)N)C(=O)N[C@@H](Cc1ccc(O)cc1)C(=O)N[C@@H](Cc1ccc(O)cc1)C(=O)N[C@H](C(=O)N[C@@H](C)C(=O)N[C@@H](CC(C)C)C(=O)N[C@@H](CCCNC(=N)N)C(=O)N[C@@H](Cc1c[nH]cn1)C(=O)N[C@@H](Cc1ccc(O)cc1)C(=O)N[C@@H](Cc1ccc(O)cc1)C(=O)N[C@@H](CC(N)=O)C(=O)N[C@@H](Cc1c[nH]c2ccccc12)C(=O)N[C@@H](CC(C)C)C(=O)N[C@H](C(=O)N[C@@H](CCCNC(=N)N)C(=O)N[C@@H](CCC(N)=O)C(=O)N[C@@H](CCCNC(=N)N)C(=O)N[C@@H](Cc1ccc(O)cc1)C(N)=O)[C@@H](C)O)C(C)C [Compound 157, N{alpha-4}-(3-methylbutanoyl)-N{epsilon-7}-(6-[(4S)-4-carboxy-4-(17-carboxyheptadecanamido)butanamido]hexanoyl)-[4A,6A,7K,9E,11A,18Q,22V,23A,28Y,30W,31L]-hPYY(4-36)] | 0.0 mg/mL | 0.3 mg/mL | 8.77
CC[C@H](C)[C@H](NC(=O)[C@H](CCC(=O)O)NC(=O)[C@H](CCC(=O)O)NC(=O)[C@@H]1CCCN1C(=O)[C@@H](NC(=O)[C@H](C)NC(=O)[C@H](CC(=O)O)NC(=O)[C@H](CCC(=O)O)NC(=O)[C@H](CCC(=O)O)NC(=O)[C@@H]1CCCN1C(=O)[C@H](CCCCNC(=O)CCCCCNC(=O)CC[C@H](NC(=O)CCCCCCCCCCCCCCCCC(=O)O)C(=O)O)NC(=O)[C@H](CCC(=O)O)NC(=O)[C@@H]1CCCN1C(=O)[C@H](C)NC(=O)CC(C)C)[C@@H](C)O)C(=O)N[C@@H](CCC(N)=O)C(=O)N[C@@H](CCCNC(=N)N)C(=O)N[C@@H](Cc1ccc(O)cc1)C(=O)N[C@@H](Cc1ccc(O)cc1)C(=O)N[C@@H](CCC(=O)O)C(=O)N[C@@H](CO)C(=O)N[C@@H](CC(C)C)C(=O)N[C@@H](CCCNC(=N)N)C(=O)N[C@@H](Cc1c[nH]cn1)C(=O)N[C@@H](Cc1ccc(O)cc1)C(=O)N[C@@H](Cc1ccc(O)cc1)C(=O)N[C@@H](CC(N)=O)C(=O)N[C@@H](Cc1c[nH]c2ccccc12)C(=O)N[C@@H](CC(C)C)C(=O)N[C@H](C(=O)N[C@@H](CCCNC(=N)N)C(=O)N[C@@H](CCC(N)=O)C(=O)N[C@@H](CCCNC(=N)N)C(=O)N[C@@H](Cc1ccc(O)cc1)C(N)=O)[C@@H](C)O [Compound 191, N{alpha-4}-(3-methylbutanoyl)-N{epsilon-7}-(6-[(4S)-4-carboxy-4-(17-carboxyheptadecanamido)butanamido]hexanoyl)-[4A,7K,9E,13T,17I,18Q,22E,28Y,30W,31L]-hPYY(4-36)] | >10.0 mg/mL | >10.0 mg/mL | 8.08

Other lines, results leading:

Sol6 (Solubility determination) | Sol7 (Solubility determination) | pKi [1] | SMILES
7.3 mg/mL | 8.8 mg/mL | 8.44 | CC(C)CC(=O)N[C@@H](C)C(=O)N1CCC[C@H]1C(=O)N[C@@H](CCC(=O)O)C(=O)N[C@@H](CCCCNC(=O)CCCCCNC(=O)CC[C@H](NC(=O)CCCCCCCCCCCCCCCCC(=O)O)C(=O)O)C(=O)N1CCC[C@H]1C(=O)N[C@@H](CCC(=O)O)C(=O)N[C@@H](CCC(=O)O)C(=O)N[C@@H](CCC(=O)O)C(=O)N[C@@H](C)C(=O)N[C@@H](CO)C(=O)N1CCC[C@H]1C(=O)N[C@@H](C)C(=O)N[C@@H](CCC(=O)O)C(=O)N[C@@H](CC(C)C)C(=O)N[C@@H](CCC(N)=O)C(=O)N[C@@H](CCCNC(=N)N)C(=O)N[C@@H](Cc1ccc(O)cc1)C(=O)N[C@@H](Cc1ccc(O)cc1)C(=O)N[C@H](C(=O)N[C@@H](CO)C(=O)N[C@@H](CC(C)C)C(=O)N[C@@H](CCCNC(=N)N)C(=O)N[C@@H](Cc1c[nH]cn1)C(=O)N[C@@H](Cc1ccc(O)cc1)C(=O)N[C@@H](Cc1ccc(O)cc1)C(=O)N[C@@H](CC(N)=O)C(=O)N[C@@H](Cc1c[nH]c2ccccc12)C(=O)N[C@@H](CC(C)C)C(=O)N[C@H](C(=O)N[C@@H](CCCNC(=N)N)C(=O)N[C@@H](CCC(N)=O)C(=O)N[C@@H](CCCNC(=N)N)C(=O)N[C@@H](Cc1ccc(O)cc1)C(N)=O)[C@@H](C)O)C(C)C [Compound 139, N{alpha-4}-(3-methylbutanoyl)-N{epsilon-7}-(6-[(4S)-4-carboxy-4-(17-carboxyheptadecanamido)butanamido]hexanoyl)-[4A,7K,9E,11E,15A,18Q,22V,28Y,30W,31L]-hPYY(4-36)] (Isovaleryl-APEK([Ahx-γGlu-C18 diacid])PEEEASPAELQRYYVSLRHYYNWLTRQRY-NH2)
10.0 mg/mL | >10.0 mg/mL | 8.81 | CC[C@H](C)[C@H](NC(=O)[C@H](CCC(=O)O)NC(=O)[C@H](CCC(=O)O)NC(=O)[C@@H]1CCCN1C(=O)[C@H](CCC(=O)O)NC(=O)[C@H](C)NC(=O)[C@H](CC(=O)O)NC(=O)[C@H](C)NC(=O)[C@H](CCC(=O)O)NC(=O)[C@@H]1CCCN1C(=O)[C@H](CCCCNC(=O)CCCCCNC(=O)CC[C@H](NC(=O)CCCCCCCCCCCCCCCCC(=O)O)C(=O)O)NC(=O)[C@H](CCC(=O)O)NC(=O)[C@@H]1CCCN1C(=O)[C@H](C)NC(=O)CC(C)C)C(=O)N[C@@H](CCC(N)=O)C(=O)N[C@@H](CCCNC(=N)N)C(=O)N[C@@H](Cc1ccc(O)cc1)C(=O)N[C@@H](Cc1ccc(O)cc1)C(=O)N[C@H](C(=O)N[C@@H](C)C(=O)N[C@@H](CC(C)C)C(=O)N[C@@H](CCCNC(=N)N)C(=O)N[C@@H](Cc1c[nH]cn1)C(=O)N[C@@H](Cc1ccc(O)cc1)C(=O)N[C@@H](Cc1ccc(O)cc1)C(=O)N[C@@H](CC(N)=O)C(=O)N[C@@H](Cc1c[nH]c2ccccc12)C(=O)N[C@@H](CC(C)C)C(=O)N[C@H](C(=O)N[C@@H](CCCNC(=N)N)C(=O)N[C@@H](CCC(N)=O)C(=O)N[C@@H](CCCNC(=N)N)C(=O)N[C@@H](Cc1ccc(O)cc1)C(N)=O)[C@@H](C)O)C(C)C [Compound 131, N{alpha-4}-(3-methylbutanoyl)-N{epsilon-7}-(6-[(4S)-4-carboxy-4-(17-carboxyheptadecanamido)butanamido]hexanoyl)-[4A,7K,9E,10A,13E,17I,18Q,22V,23A,28Y,30W,31L]-hPYY(4-36)]
9.4 mg/mL | 9.7 mg/mL | 8.77 | CC[C@H](C)[C@H](NC(=O)[C@H](CCC(=O)O)NC(=O)[C@H](CCC(=O)O)NC(=O)[C@@H]1CCCN1C(=O)[C@H](CO)NC(=O)[C@H](C)NC(=O)[C@H](CC(=O)O)NC(=O)[C@H](CCC(=O)O)NC(=O)[C@H](CCC(=O)O)NC(=O)[C@@H]1CCCN1C(=O)[C@H](CCCCNC(=O)CCCCCNC(=O)CC[C@H](NC(=O)CCCCCCCCCCCCCCCCC(=O)O)C(=O)O)NC(=O)[C@H](CCC(=O)O)NC(=O)[C@@H]1CCCN1C(=O)[C@H](C)NC(=O)CC(C)C)C(=O)N[C@@H](CCC(N)=O)C(=O)N[C@@H](CCCNC(=N)N)C(=O)N[C@@H](Cc1ccc(O)cc1)C(=O)N[C@@H](Cc1ccc(O)cc1)C(=O)N[C@H](C(=O)N[C@@H](CCC(N)=O)C(=O)N[C@@H](CC(C)C)C(=O)N[C@@H](CCCNC(=N)N)C(=O)N[C@@H](Cc1c[nH]cn1)C(=O)N[C@@H](Cc1ccc(O)cc1)C(=O)N[C@@H](Cc1ccc(O)cc1)C(=O)N[C@@H](CC(N)=O)C(=O)N[C@@H](Cc1c[nH]c2ccccc12)C(=O)N[C@@H](CC(C)C)C(=O)N[C@H](C(=O)N[C@@H](CCCNC(=N)N)C(=O)N[C@@H](CCC(N)=O)C(=O)N[C@@H](CCCNC(=N)N)C(=O)N[C@@H](Cc1ccc(O)cc1)C(N)=O)[C@@H](C)O)C(C)C [Compound 93, N{alpha-4}-(3-methylbutanoyl)-N{epsilon-7}-(6-[(4S)-4-carboxy-4-(17-carboxyheptadecanamido)butanamido]hexanoyl)-[4A,7K,9E,17I,18Q,22V,23Q,28Y,30W,31L]-hPYY(4-36)]
